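Grown in 96-well plates, cells were treated for 48 hours with each compound at five concentrations. Insufficient inhibition: endpoint recorded as highest concentration tested. TGI denotes the concentration required for complete inhibition of growth.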
Columns and labels:
Assay in all cases: inhibition of tumour cell growth, NCI panel, 48 h
M19-MEL melanoma = test system: M19-MEL melanoma
HOP-18 NSCLC = test system: HOP-18 NSCLC
MALME-3M melanoma = test system: MALME-3M melanoma
KM20L2 colon = test system: KM20L2 colon
NCI-H522 lung = test system: NCI-H522 lung
DLD-1 colon = test system: DLD-1 colon
SR leukemia = test system: SR leukemia
KM12 colon = test system: KM12 colon
DMS 114 small cell lung = test system: DMS 114 small cell lung
T-47D breast = test system: T-47D breast
BT-549 breast = test system: BT-549 breast

Question: N#C/C(=C1\OC(N)=C(c2ccc(Cl)cc2)C1=O)c1ccc(Cl)cc1 was tested. Which TGI (M19-MEL melanoma) did it give?
Answer: 31.4 µM

Question: What about the TGI (HOP-18 NSCLC) of the same compound?
Answer: 30.8 µM

Question: What about the TGI (MALME-3M melanoma) of the same compound?
Answer: 34.3 µM

Question: And the TGI (KM20L2 colon)?
Answer: 33 µM

Question: What about the TGI (NCI-H522 lung) of the same compound?
Answer: 24.6 µM

Question: And the TGI (DLD-1 colon)?
Answer: 30.9 µM

Question: What about the TGI (SR leukemia) of the same compound?
Answer: 54.7 µM

Question: And the TGI (KM12 colon)?
Answer: 31.4 µM

Question: And the TGI (DMS 114 small cell lung)?
Answer: 29.3 µM

Question: Which results are given for CC1=C2C3OC(=O)C(C)C3C(O)C[C@@]2(C)C(=O)CC1 (stereo not given in full)?
Answer: TGI (M19-MEL melanoma): > 100 µM; TGI (HOP-18 NSCLC): > 100 µM; TGI (MALME-3M melanoma): > 100 µM; TGI (KM20L2 colon): > 100 µM; TGI (NCI-H522 lung): > 100 µM; TGI (DLD-1 colon): > 100 µM; TGI (SR leukemia): > 100 µM; TGI (KM12 colon): > 100 µM; TGI (DMS 114 small cell lung): > 100 µM

Question: C/C(=N\Nc1n[nH]c(=S)n1N)c1c(O)cc(C)oc1=O was tested. Which TGI (M19-MEL melanoma) did it give?
Answer: > 100 µM

Question: What about the TGI (HOP-18 NSCLC) of the same compound?
Answer: > 100 µM

Question: What about the TGI (MALME-3M melanoma) of the same compound?
Answer: > 100 µM

Question: What about the TGI (KM20L2 colon) of the same compound?
Answer: > 100 µM

Question: What about the TGI (NCI-H522 lung) of the same compound?
Answer: > 100 µM

Question: What about the TGI (DLD-1 colon) of the same compound?
Answer: > 100 µM

Question: What about the TGI (SR leukemia) of the same compound?
Answer: > 100 µM

Question: What about the TGI (KM12 colon) of the same compound?
Answer: > 100 µM

Question: How did the TGI (M19-MEL melanoma) turn out when O=C1C(=Cc2ccc(F)cc2)C(=O)c2ccccc21 was run?
Answer: > 100 µM

Question: What about the TGI (MALME-3M melanoma) of the same compound?
Answer: > 100 µM

Question: And the TGI (KM20L2 colon)?
Answer: > 100 µM

Question: And the TGI (NCI-H522 lung)?
Answer: > 100 µM

Question: And the TGI (DLD-1 colon)?
Answer: > 100 µM

Question: What about the TGI (KM12 colon) of the same compound?
Answer: > 100 µM

Question: And the TGI (DMS 114 small cell lung)?
Answer: > 100 µM

Question: For NC(=O)c1nc(-c2ccc(Cl)c(Cl)c2)nc2ccccc12, which TGI (M19-MEL melanoma) is on record?
Answer: > 100 µM

Question: And the TGI (HOP-18 NSCLC)?
Answer: > 100 µM

Question: And the TGI (MALME-3M melanoma)?
Answer: 30 µM

Question: What about the TGI (KM20L2 colon) of the same compound?
Answer: > 100 µM

Question: What about the TGI (NCI-H522 lung) of the same compound?
Answer: > 100 µM

Question: And the TGI (DLD-1 colon)?
Answer: > 100 µM

Question: And the TGI (SR leukemia)?
Answer: > 100 µM

Question: And the TGI (KM12 colon)?
Answer: > 100 µM

Question: What about the TGI (DMS 114 small cell lung) of the same compound?
Answer: > 100 µM

Question: What does the source list for COc1ccc(/C=C2/CSC/C(=C/c3ccc(OC)c(OC)c3)C2=O)cc1OC?
Answer: TGI (M19-MEL melanoma): 6.63 µM; TGI (HOP-18 NSCLC): 17.3 µM; TGI (MALME-3M melanoma): 12.2 µM; TGI (KM20L2 colon): 6.53 µM; TGI (NCI-H522 lung): 5.83 µM; TGI (T-47D breast): 4.94 µM; TGI (KM12 colon): 3.26 µM

Question: How did the TGI (M19-MEL melanoma) turn out when COc1cc(CCc2ccncc2)cc(OC)c1OC was run?
Answer: > 100 µM

Question: And the TGI (HOP-18 NSCLC)?
Answer: > 100 µM

Question: What about the TGI (MALME-3M melanoma) of the same compound?
Answer: > 100 µM

Question: And the TGI (KM20L2 colon)?
Answer: > 100 µM

Question: What about the TGI (NCI-H522 lung) of the same compound?
Answer: > 100 µM

Question: And the TGI (DLD-1 colon)?
Answer: > 100 µM

Question: And the TGI (KM12 colon)?
Answer: > 100 µM

Question: What about the TGI (DMS 114 small cell lung) of the same compound?
Answer: > 100 µM

Question: Which TGI (M19-MEL melanoma) does the source give for O=C(CCc1cc(-c2ccc(F)cc2)n[nH]1)N(Cc1ccccc1)Cc1ccccc1 here?
Answer: > 100 µM

Question: What about the TGI (HOP-18 NSCLC) of the same compound?
Answer: > 100 µM

Question: What about the TGI (MALME-3M melanoma) of the same compound?
Answer: > 100 µM

Question: And the TGI (KM20L2 colon)?
Answer: > 100 µM

Question: And the TGI (NCI-H522 lung)?
Answer: > 100 µM

Question: And the TGI (SR leukemia)?
Answer: 81.1 µM

Question: And the TGI (KM12 colon)?
Answer: > 100 µM

Question: What about the TGI (DMS 114 small cell lung) of the same compound?
Answer: > 100 µM

Question: What does the source list for C=CCO[C@H]1CC[C@@]2(C)C(CC[C@]3(C)C2CC=C2[C@@H]4[C@@H](C)C(C)CC[C@]4(C(=O)O)CCC23C)C1(C)C (stereo not given in full)?
Answer: TGI (M19-MEL melanoma): 35.7 µM; TGI (HOP-18 NSCLC): 37.1 µM; TGI (MALME-3M melanoma): 38.4 µM; TGI (KM20L2 colon): 33.2 µM; TGI (NCI-H522 lung): 28.4 µM; TGI (DLD-1 colon): 32.1 µM; TGI (SR leukemia): 36.2 µM; TGI (KM12 colon): 30.5 µM; TGI (DMS 114 small cell lung): 32.1 µM

Question: How did the TGI (M19-MEL melanoma) turn out when C=CCCC(=O)CC(=O)OCc1ccccc1 was run?
Answer: > 100 µM

Question: And the TGI (HOP-18 NSCLC)?
Answer: > 100 µM

Question: What about the TGI (MALME-3M melanoma) of the same compound?
Answer: > 100 µM

Question: What about the TGI (KM20L2 colon) of the same compound?
Answer: > 100 µM

Question: What about the TGI (DLD-1 colon) of the same compound?
Answer: > 100 µM

Question: What about the TGI (KM12 colon) of the same compound?
Answer: > 100 µM

Question: What about the TGI (DMS 114 small cell lung) of the same compound?
Answer: > 100 µM

Question: Which results are given for Oc1ccc(O)c(-n2cccn2)c1-n1cccn1?
Answer: TGI (M19-MEL melanoma): > 100 µM; TGI (MALME-3M melanoma): > 100 µM; TGI (KM20L2 colon): > 100 µM; TGI (NCI-H522 lung): 73.1 µM; TGI (DLD-1 colon): > 100 µM; TGI (KM12 colon): > 100 µM; TGI (DMS 114 small cell lung): > 100 µM

Question: What does the source list for CCCCCC/C(CC(=O)CCC(=O)NCCc1ccccc1)=N\Nc1ccc([N+](=O)[O-])cc1[N+](=O)[O-]?
Answer: TGI (M19-MEL melanoma): > 100 µM; TGI (HOP-18 NSCLC): > 100 µM; TGI (MALME-3M melanoma): > 100 µM; TGI (KM20L2 colon): > 100 µM; TGI (NCI-H522 lung): > 100 µM; TGI (DLD-1 colon): > 100 µM; TGI (SR leukemia): 67.7 µM; TGI (KM12 colon): > 100 µM; TGI (DMS 114 small cell lung): 56.4 µM

Question: With N#CC(C#N)C(c1ccccc1)c1ccccc1 as the compound, how does the TGI (HOP-18 NSCLC) read?
Answer: > 100 µM

Question: What about the TGI (MALME-3M melanoma) of the same compound?
Answer: > 100 µM

Question: And the TGI (KM20L2 colon)?
Answer: > 100 µM

Question: And the TGI (NCI-H522 lung)?
Answer: > 100 µM

Question: What about the TGI (DLD-1 colon) of the same compound?
Answer: > 100 µM

Question: What about the TGI (SR leukemia) of the same compound?
Answer: > 100 µM

Question: And the TGI (KM12 colon)?
Answer: > 100 µM

Question: What about the TGI (DMS 114 small cell lung) of the same compound?
Answer: > 100 µM

Question: Which results are given for Cc1nc(-n2nc(-c3ccccc3)cc2-c2ccccc2)sc1C(=O)CC(=O)C(=O)Nc1ccc(O)cc1?
Answer: TGI (HOP-18 NSCLC): > 100 µM; TGI (MALME-3M melanoma): > 100 µM; TGI (KM20L2 colon): > 100 µM; TGI (NCI-H522 lung): > 100 µM; TGI (DLD-1 colon): > 100 µM; TGI (SR leukemia): > 100 µM; TGI (KM12 colon): > 100 µM; TGI (DMS 114 small cell lung): > 100 µM

Question: What does the source list for C[C@H]1CC[C@@H]2[C@@H](C)[C@H]3[C@H](C[C@H]4[C@@H]5CC=C6C[C@@H](O)CC[C@]6(C)[C@H]5CC[C@]34C)N2C1?
Answer: TGI (MALME-3M melanoma): > 100 µM; TGI (BT-549 breast): > 100 µM; TGI (NCI-H522 lung): > 100 µM; TGI (T-47D breast): > 100 µM; TGI (SR leukemia): 56.1 µM; TGI (KM12 colon): > 100 µM

Question: Which results are given for CN(C)C(=S)/N=c1\ss/c(=N\S(=O)(=O)c2ccccc2)n1C?
Answer: TGI (M19-MEL melanoma): > 100 µM; TGI (HOP-18 NSCLC): > 100 µM; TGI (MALME-3M melanoma): > 100 µM; TGI (KM20L2 colon): > 100 µM; TGI (NCI-H522 lung): > 100 µM; TGI (DLD-1 colon): > 100 µM; TGI (SR leukemia): > 100 µM; TGI (KM12 colon): > 100 µM; TGI (DMS 114 small cell lung): > 100 µM

Question: For CCN1CCC(O)(/C=C/c2ccccc2)C(C(=O)/C=C/c2ccccc2)C1 (stereo not given), which TGI (M19-MEL melanoma) is on record?
Answer: 4.18 µM

Question: What about the TGI (HOP-18 NSCLC) of the same compound?
Answer: 18.1 µM

Question: What about the TGI (MALME-3M melanoma) of the same compound?
Answer: 5.09 µM

Question: What about the TGI (KM20L2 colon) of the same compound?
Answer: 7.22 µM

Question: What about the TGI (NCI-H522 lung) of the same compound?
Answer: 3.36 µM

Question: What about the TGI (DLD-1 colon) of the same compound?
Answer: 8.22 µM

Question: What about the TGI (KM12 colon) of the same compound?
Answer: 3.44 µM

Question: And the TGI (DMS 114 small cell lung)?
Answer: 5.6 µM

Question: COC(=O)C#CC(N)=O was tested. Which TGI (M19-MEL melanoma) did it give?
Answer: > 100 µM

Question: And the TGI (HOP-18 NSCLC)?
Answer: > 81.1 µM

Question: And the TGI (MALME-3M melanoma)?
Answer: 19.1 µM

Question: And the TGI (KM20L2 colon)?
Answer: > 31.6 µM

Question: What about the TGI (NCI-H522 lung) of the same compound?
Answer: > 100 µM

Question: And the TGI (DLD-1 colon)?
Answer: > 100 µM

Question: And the TGI (SR leukemia)?
Answer: 60.7 µM

Question: What about the TGI (KM12 colon) of the same compound?
Answer: > 100 µM

Question: What about the TGI (DMS 114 small cell lung) of the same compound?
Answer: > 100 µM
